Assay results from US20250059182A1, “SOS1 INHIBITORS” (Mirati Therapeutics, Inc., priority 2021, published 2025).
Like-named read-outs stand apart in the source and are kept apart here.

Tests used:
[1] = target: T1, recombinant human SOS1 polypeptide (amino acids 560-1049) (Homo sapiens, UniProt Q07889); experiment: HTRF displacement assay: inhibition of labeled tracer binding to SOS1; conditions: Table A, Morrison equation for competitive binding
T1 construct: corresponding to amino acids 560-1049, expressed in E. Coli; made in house; host or cells: E. coli
T1 sequence (Q07889 560-1049): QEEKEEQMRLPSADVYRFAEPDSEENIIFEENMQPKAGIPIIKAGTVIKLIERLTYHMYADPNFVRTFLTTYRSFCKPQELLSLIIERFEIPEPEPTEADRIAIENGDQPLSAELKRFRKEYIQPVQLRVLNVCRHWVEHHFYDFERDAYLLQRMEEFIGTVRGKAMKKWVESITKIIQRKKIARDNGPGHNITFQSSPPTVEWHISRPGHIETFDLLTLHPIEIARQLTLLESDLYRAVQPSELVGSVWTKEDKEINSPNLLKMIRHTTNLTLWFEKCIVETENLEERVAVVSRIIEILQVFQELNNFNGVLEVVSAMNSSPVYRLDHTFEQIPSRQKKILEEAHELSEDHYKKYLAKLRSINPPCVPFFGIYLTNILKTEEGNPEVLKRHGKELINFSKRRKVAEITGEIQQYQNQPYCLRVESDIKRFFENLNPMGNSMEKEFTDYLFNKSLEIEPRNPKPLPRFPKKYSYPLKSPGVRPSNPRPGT

pERK in MKN1 cells = experiment: pERK inhibition, In-Cell Western (LI-COR Odyssey), MKN1 cells; type: cell-based; conditions: MKN1 or H358 cells (table does not say which), 0.5-1 hour incubation, read-out: IC50 (nM), pERK inhibition
How it was run: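 IC50 was fitted from % pERK inhibition, calculated as the GAPDH-normalised pERK signal of each well divided by the vehicle mean. Signal was imaged at 700 and 800 nm after fixation, methanol permeabilisation and dual antibody staining. Before fixation, MKN1 cells had received compound for about 0.5–1 h at 37 °C, top concentration 10 µM, nine 3-fold dilutions.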

## Cc1c(C#N)cccc1[C@@H](C)Nc1nnc(C)c2cc(F)c(N3CC4(COC4)C3)cc12 [Example 4-2, (R)-3-(1-((6-fluoro-4-methyl-7-(2-oxa-6-azaspiro[3.3]heptan-6-yl)phthalazin-1-yl)amino)ethyl)-2-methylbenzonitrile]
[1]
  Ki: 5.85 nM
pERK in MKN1 cells; Homo sapiens, MKN-1, Table B
  IC50: 64 nM

## Cc1c(C#N)cccc1[C@@H](C)Nc1nnc(C)c2cc(F)c(N(C)C3CCN(C)CC3)cc12 [Example 4-3, (R)-3-(1-((6-fluoro-4-methyl-7-(methyl(1-methylpiperidin-4-yl)amino)phthalazin-1-yl)amino)ethyl)-2-methylbenzonitrile]
[1]
  Ki: 3.34 nM
pERK in MKN1 cells; Homo sapiens, MKN-1, Table B
  IC50: 150 nM

## Cc1c(C#N)cccc1[C@@H](C)Nc1nnc(C)c2cc(F)c(N3CCC34CN(C)C4)cc12 [Example 4-4, (R)-3-(1-((6-fluoro-4-methyl-7-(6-methyl-1,6-diazaspiro[3.3]heptan-1-yl)phthalazin-1-yl)amino)ethyl)-2-methylbenzonitrile]
[1]
  Ki: 0.892 nM
pERK in MKN1 cells; Homo sapiens, MKN-1, Table B
  IC50: 39.6 nM

## Cc1nnc(N[C@H](C)c2cccc(C(F)(F)F)c2F)c2cc(N3CCC34CN(C)C4)c(F)cc12 [Example 4-5, (R)-6-fluoro-N-(1-(2-fluoro-3-(trifluoromethyl)phenyl)ethyl)-4-methyl-7-(6-methyl-1,6-diazaspiro[3.3]heptan-1-yl)phthalazin-1-amine]
[1]
  Ki: 0.585 nM
pERK in MKN1 cells; Homo sapiens, MKN-1, Table B
  IC50: 103 nM

## Cc1nnc(N[C@H](C)c2cccc(C(F)(F)F)c2F)c2cc(N3CCOCC3)c(F)cc12 [Example 4-6, (R)-6-fluoro-N-(1-(2-fluoro-3-(trifluoromethyl)phenyl)ethyl)-4-methyl-7-morpholinophthalazin-1-amine]
[1]
  Ki: 12.3 nM
pERK in MKN1 cells; Homo sapiens, MKN-1, Table B
  IC50: 176 nM

## Cc1nnc(N[C@H](C)c2cccc(C(F)(F)F)c2F)c2cc(N3CCN(C)CC3)c(F)cc12 [Example 4-7, (R)-6-fluoro-N-(1-(2-fluoro-3-(trifluoromethyl)phenyl)ethyl)-4-methyl-7-(4-methylpiperazin-1-yl)phthalazin-1-amine]
[1]
  Ki: 1.06 nM
pERK in MKN1 cells; Homo sapiens, MKN-1, Table B
  IC50: 110 nM

## Cc1c(C#N)cccc1[C@@H](C)Nc1nnc(C)c2cc(F)c(N3CC4(CN(C)C4)C3)cc12 [Example 4-9, (R)-3-(1-((6-fluoro-4-methyl-7-(6-methyl-2,6-diazaspiro[3.3]heptan-2-yl)phthalazin-1-yl)amino)ethyl)-2-methylbenzonitrile]
[1]
  Ki: 0.343 nM
pERK in MKN1 cells; Homo sapiens, MKN-1, Table B
  IC50: 24.1 nM

## Cc1nnc(N[C@H](C)c2cccc(C(F)(F)F)c2F)c2cc(N3CC4(COC4)C3)c(F)cc12 [Example 4-10, (R)-6-fluoro-N-(1-(2-fluoro-3-(trifluoromethyl)phenyl)ethyl)-4-methyl-7-(2-oxa-6-azaspiro[3.3]heptan-6-yl)phthalazin-1-amine]
[1]
  Ki: 2.4 nM
pERK in MKN1 cells; Homo sapiens, MKN-1, Table B
  IC50: 141 nM

## Cc1c(C#N)cccc1[C@@H](C)Nc1nnc(C)c2cc(F)c(N3CCN4CCOC[C@@H]4C3)cc12 [Example 4-11, 3-((R)-1-((6-fluoro-7-((S)-hexahydropyrazino[2,1-c][1,4]oxazin-8(1H)-yl)-4-methylphthalazin-1-yl)amino)ethyl)-2-methylbenzonitrile]
[1]
  Ki: 5.77 nM
pERK in MKN1 cells; Homo sapiens, MKN-1, Table B
  IC50: 162 nM

## Cc1c(C#N)cccc1[C@@H](C)Nc1nnc(C)c2cc(F)c(N3C[C@@H]4C[C@H]3CO4)cc12 [Example 4-13, 3-((R)-1-((7-((1S,4S)-2-oxa-5-azabicyclo[2.2.1]heptan-5-yl)-6-fluoro-4-methylphthalazin-1-yl)amino)ethyl)-2-methylbenzonitrile]
[1]
  Ki: 16.1 nM
pERK in MKN1 cells; Homo sapiens, MKN-1, Table B
  IC50: 165 nM

## Cc1c(C#N)cccc1[C@@H](C)Nc1nnc(C)c2cc(F)c(N3C[C@@H]4C[C@H]3CN4C)cc12 [Example 4-14, 3-((R)-1-((6-fluoro-4-methyl-7-((1S,4S)-5-methyl-2,5-diazabicyclo[2.2.1]heptan-2-yl)phthalazin-1-yl)amino)ethyl)-2-methylbenzonitrile]
[1]
  Ki: 1.16 nM
pERK in MKN1 cells; Table B
  IC50: 41.6 nM

## Cc1c(C#N)cccc1[C@@H](C)Nc1nnc(C)c2cc(F)c(N3C[C@H]4C[C@@H]3CO4)cc12 [Example 4-15, 3-((R)-1-((7-((1R,4R)-2-oxa-5-azabicyclo[2.2.1]heptan-5-yl)-6-fluoro-4-methylphthalazin-1-yl)amino)ethyl)-2-methylbenzonitrile]
[1]
  Ki: 4.66 nM
pERK in MKN1 cells; Homo sapiens, MKN-1, Table B
  IC50: 37.8 nM

## Cc1nnc(N[C@H](C)c2cccc(C(C)(F)F)c2F)c2cc(N3CCN(C)CC3)c(F)cc12 [Example 4-16, (R)-N-(1-(3-(1,1-difluoroethyl)-2-fluorophenyl)ethyl)-6-fluoro-4-methyl-7-(4-methylpiperazin-1-yl)phthalazin-1-amine]
[1]
  Ki: 0.742 nM
pERK in MKN1 cells; Homo sapiens, MKN-1, Table B
  IC50: 52 nM

## COCCN(C)c1cc2c(N[C@H](C)c3cccc(C#N)c3C)nnc(C)c2cc1F [Example 4-17, (R)-3-(1-((6-fluoro-7-((2-methoxyethyl)(methyl)amino)-4-methylphthalazin-1-yl)amino)ethyl)-2-methylbenzonitrile]
[1]
  Ki: 9.16 nM
pERK in MKN1 cells; Homo sapiens, MKN-1, Table B
  IC50: 814 nM

## Cc1c(C#N)cccc1[C@@H](C)Nc1nnc(C)c2cc(F)c(N3CCN(C)C(C)(C)C3)cc12 [Example 4-18, (R)-3-(1-((6-fluoro-4-methyl-7-(3,3,4-trimethylpiperazin-1-yl)phthalazin-1-yl)amino)ethyl)-2-methylbenzonitrile]
[1]
  Ki: 1.42 nM
pERK in MKN1 cells; Homo sapiens, MKN-1, Table B
  IC50: 118 nM

## Cc1c(C#N)cccc1[C@@H](C)Nc1nnc(C)c2cc(F)c(N3CCS(=O)(=O)CC3)cc12 [Example 4-19, (R)-3-(1-((7-(1,1-dioxidothiomorpholino)-6-fluoro-4-methylphthalazin-1-yl)amino)ethyl)-2-methylbenzonitrile]
[1]
  Ki: 3.53 nM
pERK in MKN1 cells; Homo sapiens, MKN-1, Table B
  IC50: 551 nM

## Cc1c(C#N)cccc1[C@@H](C)Nc1nnc(C)c2cc(F)c(N3C[C@@H]4C[C@H]3CN4C)cc12 [Example 4-21, 3-((R)-1-((6-fluoro-4-methyl-7-((1S,4S)-5-methyl-2,5-diazabicyclo[2.2.1]heptan-2-yl)phthalazin-1-yl)amino)ethyl)-2-methylbenzonitrile]
[1]
  Ki: 2 nM
pERK in MKN1 cells; Table B
  IC50: 16 nM

## Cc1c([C@@H](C)Nc2nnc(C)c3cc(F)c(N4CCOCC4)cc23)cc(N)nc1C(F)(F)F [Example 4-22, (R)-N-(1-(6-amino-3-methyl-2-(trifluoromethyl)pyridin-4-yl)ethyl)-6-fluoro-4-methyl-7-morpholinophthalazin-1-amine]
[1]
  Ki: 22 nM
pERK in MKN1 cells; Homo sapiens, MKN-1, Table B
  IC50: 49 nM

## Cc1nnc(N[C@H](C)c2cccc(C(F)(F)F)c2F)c2cc(N(C)C3CCN(C)CC3)c(F)cc12 [Example 4-23, (R)-6-fluoro-N^1-(1-(2-fluoro-3-(trifluoromethyl)phenyl)ethyl)-N^7,4-dimethyl-N^7-(1-methylpiperidin-4-yl)phthalazine-1,7-diamine]
[1]
  Ki: 1.2 nM
pERK in MKN1 cells; Homo sapiens, MKN-1, Table B
  IC50: 25 nM

## Cc1c(C#N)cccc1[C@@H](C)Nc1nnc(N2CC[C@@H](N)C2)c2cnc(N3C[C@H]4C[C@@H]3CO4)cc12 [Example 5-1, 3-((R)-1-((4-((R)-3-aminopyrrolidin-1-yl)-7-((1R, 4R)-2-oxa-5-azabicyclo[2.2.1]heptan-5-yl)pyrido[3,4-d]pyridazin-1-yl)amino)ethyl)-2-methylbenzonitrile]
[1]
  Ki: 0.505 nM
pERK in MKN1 cells; Homo sapiens, MKN-1, Table B
  IC50: 1320 nM

## Cc1c(C#N)cccc1[C@@H](C)Nc1nnc(N2CC[C@@H](N(C)C)C2)c2cnc(N3C[C@H]4C[C@@H]3CO4)cc12 [Example 5-2, 3-((R)-1-((7-((1R, 4R)-2-oxa-5-azabicyclo[2.2.1]heptan-5-yl)-4-((R)-3-(dimethylamino)pyrrolidin-1-yl)pyrido[3,4-d]pyridazin-1-yl)amino)ethyl)-2-methylbenzonitrile]
[1]
  Ki: 0.973 nM
pERK in MKN1 cells; Homo sapiens, MKN-1, Table B
  IC50: 115 nM

## Cc1c(C#N)cccc1[C@@H](C)Nc1nnc(CN(C)C)c2cnc(N3CC4(COC4)C3)cc12 [Example 6-1, (R)-3-(1-((4-((dimethylamino)methyl)-7-(2-oxa-6-azaspiro[3.3]heptan-6-yl)pyrido[3,4-d]pyridazin-1-yl)amino)ethyl)-2-methylbenzonitrile]
[1]
  Ki: 18.3 nM
pERK in MKN1 cells; Homo sapiens, MKN-1, Table B
  IC50: 171 nM

## COc1cc2c(C)nnc(N[C@H](C)c3cccc(C#N)c3C)c2cc1OC [Example 6-7, (R)-3-(1-((6,7-dimethoxy-4-methylphthalazin-1-yl)amino)ethyl)-2-methylbenzonitrile]
[1]
  Ki: 14.5 nM
pERK in MKN1 cells; Homo sapiens, MKN-1, Table B
  IC50: 177 nM

## Cc1c(C#N)cccc1[C@@H](C)Nc1nnc(C)c2cnc(C3CCN(C)CC3)cc12 [Example 6-14, (R)-2-methyl-3-(1-((4-methyl-7-(1-methylpiperidin-4-yl)pyrido[3,4-d]pyridazin-1-yl)amino)ethyl)benzonitrile]
[1]
  Ki: 8.89 nM
pERK in MKN1 cells; Homo sapiens, MKN-1, Table B
  IC50: 468 nM

## Cc1nnc(N[C@H](C)c2cccc(C(F)(F)F)c2F)c2cc(N3CCN(C)CC3)c(C#N)cc12 [Example 6-17, (R)-1-((1-(2-fluoro-3-(trifluoromethyl)phenyl)ethyl)amino)-4-methyl-7-(4-methylpiperazin-1-yl)phthalazine-6-carbonitrile]
[1]
  Ki: 2.29 nM
pERK in MKN1 cells; Homo sapiens, MKN-1, Table B
  IC50: 139 nM
